Test results taken from patent publication US11279708B2, “Amidino- and amino-rocaglates as novel translation inhibitors and anticancer agents” (priority 2019, dated 2022).

Columns and labels:
HEK 293 cells = test: in cellula translation of transfected (AG)10- and (UC)10-FF/HCV/Ren mRNA; format: cell-based; details: compound added 1 h after mRNA transfection, 6 h exposure
From the text: We next asked if differences in behavior among rocaglates towards the (AG)10- and (UC)10-reporters observed in vitro also extended in cellula (FIG. 26B). This was important since in cells, mRNA transcripts need to compete for components of the translation initiation machinery from a complex cellular mRNA pool and this scenario is difficult to recapitulate in experiments using cell-free extracts. Following mRNA transfections, cells were exposed to compound and luciferase activity determined.
RNA Transfections. HEK 293 cells were transfected in a 24 well plate with 0.25 μg/well of in vitro synthesized capped m^7GpppG(AG)10-FF/HCV/Ren or m^7GpppG(UC)10FF/HCV/Ren mRNA and 1 h later were exposed to the indicated concentrations of compounds for an additional 6 h. Following this, extracts were prepared using passive lysis buffer (PLB, Promega) and luciferase activity measured on a Berthold Lumt LB 9507 luminometer.
FIGS. 26A-26B. In cellula activity of rocaglates. 26A. Cytotoxicity of rocaglates towards NIH/3T3 (grey circle) and the NIH/3T3 rocaglate-resistant line, eIF4A^em1JP(redtriangle). Cells were exposed to 40 nM compound for 4 days and viability was measured using the SRB assay. n=3±SD. 26B. Rocaglates show different sequence preferences for inhibiting cap-dependent translation in cellula. HEK 293 cells were transfected with 0.5 μg of in vitro synthesized capped (AG)10-FF/HCV/Ren or (UC)10-FF/HCV/Ren mRNA and 1h later exposed to the indicated concentrations of compounds for an additional 6 h, at which time extracts were prepared and luciferase activity measured. n=3 SD.
FIG. 28. In cellula dose-response of (AG)10- and (UC)10-FF/HCV/Ren mRNAs to hippuristanol and pateamine. Firefly and renilla luciferase activity in response to the indicated compound concentrations (relative to DMSO controls) following mRNA transfections in 293 cells. n=3±SD.

eIF4F = molecular target: T1, eIF4F (Mus musculus, UniProt P60843); test: trans-inhibition and eIF4F rescue in Krebs-2 translation extracts; format: biochemical; details: for effect of added eIF4F on compound-induced inhibition (in words): 100 nM compound, eIF4F 10 nM; for effect of m7GpppG-(AG)10 competitor RNA on (UC)10-FF/HCV/Ren translation (in words): 25-fold molar excess competitor
T1 construct: endogenous in cells; host or cells: Krebs-2 cell-free translation extract
T1 sequence (P60843 2-406 limits assumed): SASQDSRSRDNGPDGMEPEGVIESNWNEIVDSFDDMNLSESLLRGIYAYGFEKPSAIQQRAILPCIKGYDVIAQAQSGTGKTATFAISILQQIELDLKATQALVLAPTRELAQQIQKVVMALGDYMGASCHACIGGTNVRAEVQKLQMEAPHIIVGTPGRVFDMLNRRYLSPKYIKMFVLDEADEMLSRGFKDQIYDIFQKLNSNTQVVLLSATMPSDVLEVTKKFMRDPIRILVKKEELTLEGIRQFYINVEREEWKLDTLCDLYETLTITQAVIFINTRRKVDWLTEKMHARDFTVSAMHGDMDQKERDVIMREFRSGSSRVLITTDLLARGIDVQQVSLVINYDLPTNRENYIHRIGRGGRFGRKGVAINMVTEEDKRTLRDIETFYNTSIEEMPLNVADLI
T1 sequence (P63073 2-217 partner limits assumed): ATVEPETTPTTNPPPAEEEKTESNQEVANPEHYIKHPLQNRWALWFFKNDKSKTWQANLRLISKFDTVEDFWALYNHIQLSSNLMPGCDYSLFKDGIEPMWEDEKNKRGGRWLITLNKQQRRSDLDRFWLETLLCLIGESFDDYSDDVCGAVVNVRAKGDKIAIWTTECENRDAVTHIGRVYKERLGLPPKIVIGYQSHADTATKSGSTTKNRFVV
T1 sequence (Q6NZJ6 whole entry partner): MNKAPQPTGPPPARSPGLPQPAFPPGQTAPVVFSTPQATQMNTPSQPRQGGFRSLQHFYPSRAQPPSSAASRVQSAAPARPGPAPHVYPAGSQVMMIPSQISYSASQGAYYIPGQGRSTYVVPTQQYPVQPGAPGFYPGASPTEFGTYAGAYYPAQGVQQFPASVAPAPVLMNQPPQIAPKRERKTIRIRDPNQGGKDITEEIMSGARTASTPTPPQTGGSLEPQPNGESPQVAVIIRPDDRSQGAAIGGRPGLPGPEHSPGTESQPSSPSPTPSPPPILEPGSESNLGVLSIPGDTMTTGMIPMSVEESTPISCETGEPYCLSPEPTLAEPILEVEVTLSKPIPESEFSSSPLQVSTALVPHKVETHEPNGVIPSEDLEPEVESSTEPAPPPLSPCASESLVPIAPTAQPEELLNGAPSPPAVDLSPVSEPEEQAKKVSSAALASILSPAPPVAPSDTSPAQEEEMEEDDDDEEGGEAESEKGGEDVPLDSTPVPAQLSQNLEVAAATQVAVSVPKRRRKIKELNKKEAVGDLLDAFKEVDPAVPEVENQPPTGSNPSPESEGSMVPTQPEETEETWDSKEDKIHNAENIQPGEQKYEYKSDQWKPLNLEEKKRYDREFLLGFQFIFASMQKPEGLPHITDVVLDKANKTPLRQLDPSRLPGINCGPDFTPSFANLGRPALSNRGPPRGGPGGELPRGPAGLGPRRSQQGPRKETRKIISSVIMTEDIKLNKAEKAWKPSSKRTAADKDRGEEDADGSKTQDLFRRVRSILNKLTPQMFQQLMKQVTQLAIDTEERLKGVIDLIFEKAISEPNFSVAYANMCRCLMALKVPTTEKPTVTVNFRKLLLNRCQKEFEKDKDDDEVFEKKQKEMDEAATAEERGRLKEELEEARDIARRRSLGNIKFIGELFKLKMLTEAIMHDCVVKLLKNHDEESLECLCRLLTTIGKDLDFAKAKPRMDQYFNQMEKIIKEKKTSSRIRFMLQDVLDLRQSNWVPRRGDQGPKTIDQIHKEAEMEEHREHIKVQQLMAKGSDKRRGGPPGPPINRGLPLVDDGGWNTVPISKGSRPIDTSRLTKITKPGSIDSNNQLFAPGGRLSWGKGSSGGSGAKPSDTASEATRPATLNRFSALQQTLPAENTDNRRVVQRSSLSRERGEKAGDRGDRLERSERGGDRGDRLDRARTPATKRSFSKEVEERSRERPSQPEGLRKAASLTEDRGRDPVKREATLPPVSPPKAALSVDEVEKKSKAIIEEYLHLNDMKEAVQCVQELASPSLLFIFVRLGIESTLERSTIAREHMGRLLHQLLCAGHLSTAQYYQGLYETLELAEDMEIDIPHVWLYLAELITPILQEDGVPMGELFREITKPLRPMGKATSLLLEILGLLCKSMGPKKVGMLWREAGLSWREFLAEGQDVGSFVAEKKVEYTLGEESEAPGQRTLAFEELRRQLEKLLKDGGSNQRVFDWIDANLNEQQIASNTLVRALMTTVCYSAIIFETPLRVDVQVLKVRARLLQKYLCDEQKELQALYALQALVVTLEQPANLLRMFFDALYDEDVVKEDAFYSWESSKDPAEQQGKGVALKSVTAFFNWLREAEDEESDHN
From the text: In addition to a primary effect on translation of the target mRNA to which eIF4F is clamped by the rocaglate, this retention is predicted to lead to a reduction in the limiting eIF4F pool available for ribosome recruitment and could exert a trans-inhibitory effect on mRNAs that are not directly-targeted by rocaglates (i.e., absence of polypurine regions in their 5′ leader regions). To test this, we programmed in vitro translation reactions with (UC)10-FF/HCV/Ren mRNA which we found to be unresponsive to CR-1-31-B (23) and RocA (2) (FIG. 22). These were then supplemented with a 25-fold molar excess m^7GpppG-(AG)10 (SEQ ID NO: 10) or ApppG-(AG)10 (SEQ ID NO: 11) competitor RNA (FIG. 30B). […] In contrast, addition of ApppG-(AG)10 (SEQ ID NO: 11) and CR-1-31-B (23) or RocA (2) had little impact on translation of (UC)10-FF/HCV/Ren mRNA, indicating this to be a cap-dependent phenomenon (FIG. 30C, blue dotted line). If rocaglates decrease the pool of active eIF4F complexes, we posit that the addition of eIF4F to translation extracts should rescue rocaglate-mediated inhibition.
FIGS. 30A-30B. Rocaglates exert effects on eIF4F activity. 30A. RPDs performed with m^7GpppG-capped RNA incubated in the presence of retic lysate and either vehicle or 500 nM rocaglate. 30B. Schematic diagram showing assay assessing trans-inhibition of rocaglates. 30C. The presence of m^7GpppG capped, but not ApppG capped, purine-rich RNAs sensitizes the rocaglate-unresponsive m^7GpppG(UC)10-FF/HCV/Ren reporter to inhibition. Translation reactions were performed in Krebs-2 extracts with 10 nM of m^7GpppG(UC)10-FF/HCV/Ren reporter and 250 nM of competitor RNA. Reactions were incubated at 30° C. for 60 min prior to luciferase measurement. n=3±SD. 30D. The addition of recombinant eIF4F rescues rocaglate mediated translation inhibition. The m^7GpppG(AG)10-FF/HCV/Ren reporter was added to Krebs-2 translation extracts in the presence eIF4F and 100 nM of the indicated compound. Reactions were incubated at 30° C. for 60 min prior to luciferase measurement. n≥3, ±SEM

[1] = tested on: cap-dependent translation; test: in vitro translation of (AG)10- and (UC)10-FF/HCV/Ren mRNA reporters in Krebs-2 extracts; format: biochemical; details: cap-proximal (AG)10 or (UC)10
Protocol: Rocaglates show differing mRNA targeting spectra in translation assays. The in vitro experiments described above investigating the rocaglate-mediated inhibition of cap-dependent translation were performed at a fixed rocaglate concentration (2 μM) using a generic bicistronic mRNA reporter in Krebs-2 cell-free translation extracts (FIG. 19C). To better assess the consequences of eIF4A:polypurine clamping on the initiation process, we designed a series of bicistronic reporters harboring cap-proximal polypurine tracks of varying lengths in their 5′ leader region (FIG. 22A). […] We reasoned that these reporters would provide a sensitized readout for rocaglate-induce clamping of eIF4A at this location.
We next tested the response of mRNA reporters containing cap-proximal (AG)10 or (UC)10 sequences (FIG. 22A). […] The difference in activity observed between CR-1-31-B (23) and silvestrol 1 was not restricted to cap-proximal polypurine tracks, but also observed with reporters where the polypurine/polypyrimidine tracks were situated 15 nt downstream from the cap (FIGS. 24A and 24B).
In Vitro Translation Assays. In vitro translation assays performed in Krebs-2 cell extracts were supplemented with 5 mM MgCl2, 30 mM Tris-HCl (pH 7.5), 1.5 mM ATP, 0.1 mM GTP, 0.6 mM CTP, 10 mM dipotassium creatine phosphate, 80 μg/mL creatine kinase, and 0.04 mM amino acids. The specified mRNA reporters were added to each reaction at a final concentration of 10 ng/μL. The translation reactions were incubated with or without compound for 60 minutes at 30° C. prior to the measurement of luciferase activities.
FIGS. 23A-23C. The presence of polypurines bases in mRNA 5′ leader regions are not universal predictors of rocaglate-responsiveness. FIG. 23A. Schematic diagram of FF/HCV/Ren mRNA reporters containing cap-proximal (AG) or (UC) dinucleotide repeats. 23B. Firefly and renilla luciferase activity in response to the indicated CR-1-31-B (23) concentrations (relative to DMSO controls) in Krebs-2 extracts programmed with 4 ng/uL of the indicated mRNAs. n=3±SD. 23C. Dose response of the indicated compounds in Krebs-2 extracts programmed with 4 ng/μL of the indicated mRNAs. n=3± SD.
FIG. 23. Dose-response of (AG)10- and (UC)10-FF/HCV/Ren mRNAs to CMLD011167, hippuristanol and pateamine A in vitro. Firefly and renilla luciferase activity in response to the indicated compound concentrations (relative to DMSO controls) in Krebs-2 extracts programmed with 4 ng/μL of the indicated mRNAs. n=3± SD.

Compound | inhibition of (AG)10 versus (UC)10 reporter in cellula (in words) (HEK 293 cells) | effect of added eIF4F on compound-induced inhibition (in words) (eIF4F) | effect of m7GpppG-(AG)10 competitor RNA on (UC)10-FF/HCV/Ren translation (in words) (eIF4F) | inhibition of (AG)10 versus (UC)10 reporter in vitro (in words) [1]
CONC(=O)[C@H]1[C@@H](O)[C@@]2(O)c3c(OC)cc(OC)cc3O[C@@]2(c2ccc(OC)cc2)[C@@H]1c1ccccc1 [CR-1-31-B] | showed preference for inhibiting (AG)10-FF/HCV/Ren over (UC)10-FF/HCV/Ren mRNA | partially rescue | sensitized (UC)10-FF/HCV/Ren mRNA to inhibition | inhibited cap-dependent translation (FLuc) from only the (AG)10-containing mRNA
COc1ccc([C@@]23Oc4cc(OC)cc(OC)c4[C@]2(O)[C@H](O)[C@H](C(=O)N(C)C)[C@H]3c2ccccc2)cc1 [RocA, rocaglamide A] |  |  | sensitized (UC)10-FF/HCV/Ren mRNA to inhibition | inhibited cap-dependent translation (FLuc) from only the (AG)10-containing mRNA
COC(=O)[C@@H]1[C@@H](c2ccccc2)[C@]2(c3ccc(OC)cc3)Oc3cc(OC)cc(OC)c3[C@@]23N=C(C)N[C@@]13O [9b] | slight preference for inhibiting the (AG)10-FF/HCV/Ren reporter mRNA |  |  | equally inhibited translation of both (AG)10 and (UC)10 reporters
COC(=O)[C@H]1[C@@H](O)[C@@]2(O)c3c(OC)cc(O[C@@H]4O[C@@H]([C@H](O)CO)CO[C@H]4OC)cc3O[C@@]2(c2ccc(OC)cc2)[C@@H]1c1ccccc1 [silvestrol] | inhibited both reporters equally | partially rescue |  | equally inhibited both mRNA reporters
